Reference: US6750221B1 (BASF Aktiengesellschaft, priority 1999, dated 2004)
Read-outs that look alike come from different tables or passages of the source.

Columns and labels:
male Long Evans rats = assay: Neuroprotective action: MCA occlusion (experimental cerebral stroke); assay type: in vivo, rat; settings: 90 min after MCA occlusion, infarct volume 22 hours after occlusion
Method: The experiments were performed on male Long Evans rats. Under nitrous oxide-assisted halothane anesthesia, the middle cerebral artery (MCA) was severed and permanently ligated distally, as described in the literature. The resulting infarct volume was determined 22 hours after MCA occlusion.

h5-HT5 receptor [1] = molecular target: T1, h5-HT5 receptor (Homo sapiens, UniProt P47898); assay: [3H]-5-CT binding competition on h5-HT5 membranes
T1 construct: expressed in transfected cells; host or cells: HEK293 cells (CHO cells obtained analogously), pcDNA3 plasmid, neomycin selection; membranes prepared
Method: Membranes obtained according to Example 2 (200 μl) were incubated in the presence of 2 nM [^3H]-5-CT in a total volume of 600 μl in buffer B with increasing concentrations of selected compounds. After an incubation time of 75 min at 30° C., the samples were filtered at 4° C. through GF/B filters embedded in 0.3% polyethyleneimide using buffer B. The filters were washed with 9 ml of buffer B. The radioactivity retained on the filters was determined as in Reference Example 3.
According to Reference Example 4, the binding affinities of serotoninergic compounds were determined by means of [^3H]-5-CT binding competition.

hippocampal neurons = assay: Neuroprotective action: experimental brain trauma of the rat (lateral fluid percussion); assay type: in vivo; settings: 20 + 20 mg/kg i.p., 15 + 120 min post trauma; 14 days after traumatization
Description: The lateral fluid percussion method (McIntosh TK, Neuroscience 28, 233 244, 1989) was used in order to produce an experimental brain trauma in the rat which is suitable for the testing of potential neuroprotective substances. By means of this technique, controlled and consistent tissue damage was produced underneath the site of the impact, which included the neocortex, the hippocampus and the thalamus.
The right parietotemporal region of the skull was exposed in the anesthetized rat. The skull was trepanned through the parietal cortex (about 4 mm diameter), the dura being left intact. A Luer lock attachment was fixed to the skull using dental cement through the trepanation. After the dental cement had hardened, the rat was connected to the fluid percussion apparatus according to McIntosh. This consisted of a cylinder filled with 0.9% NaCl solution, one end of the cylinder being closed by a piston, while the other end was connected via a pressure transducer to a Luer lock attachment. […]
The rats were sacrificed 14 days after traumatization for removal of the brain. […] For the quantification of the neuronal damage, cell counts were carried out bilaterally in the rostral hippocampus; the proportion of intact cells in the dentate gyrus was determined on the traumatized (right) and the (left) opposite side. […]

h5-HT5 receptor [2] = molecular target: T1, h5-HT5 receptor; assay: Saturation binding of [3H]-5-CT to membranes of h5-HT5 receptor-expressing cells; settings: 30° C., 90 min, read-out: dissociation constant Kd
Method: The gene coding for the human 5-HT5 receptor was isolated from human tissues in a known manner by means of 3′-5′-RT-PCR (RACE system, Boehringer Mannheim). The gene sequence was then inserted into a plasmid carrying the neomycin resistance gene (pcDNA3; Invitrogen, Germany) and amplified in E. coli according to the manufacturer's instructions. A preparation of the resulting plasmid was mixed with Lipofectamin® (Gibco Life-Sciences, Germany), and HEK293 cells were incubated with a thin layer of this transfection mixture in petri dishes (2.5 cm). The transfection mixture was then replaced by neomycin-containing culture medium. […]
The methodology is essentially known (Ress S. et al., FEBS Letters 335:242-246 (1994)). […] The filters were washed at 4° C. with 9 ml of buffer B. The radioactivity retained on the filters was measured by means of liquid scintillation counting, 5 ml of Ultima-Gold (Packard) being used.
The saturation parameters of the [^3H]-5-CT binding was determined both by nonlinear regression analysis and from linear plots using the SigmaPlot software (Jandel Scientific, Germany). Competition curves were set up in which the radioactive binding is expressed as a percentage proportion of the total binding. Half maximal inhibition constants IC50 and Hill-coefficients (nH) were determined by means of nonlinear regression analysis. […]

[3] = 2 + 1 mg/kg + mg/kg/h i.v. bolus then infusion

T1 sequence (P47898 whole entry): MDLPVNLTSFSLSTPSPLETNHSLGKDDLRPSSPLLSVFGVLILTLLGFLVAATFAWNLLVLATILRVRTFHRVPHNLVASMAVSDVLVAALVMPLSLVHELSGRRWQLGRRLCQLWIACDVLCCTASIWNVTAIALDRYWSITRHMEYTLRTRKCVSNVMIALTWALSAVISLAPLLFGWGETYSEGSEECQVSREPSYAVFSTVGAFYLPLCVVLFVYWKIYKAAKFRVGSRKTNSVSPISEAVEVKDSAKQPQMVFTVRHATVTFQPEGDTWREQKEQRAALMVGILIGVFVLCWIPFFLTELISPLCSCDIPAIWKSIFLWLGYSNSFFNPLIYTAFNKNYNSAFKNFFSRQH

| Ki (h5-HT5 receptor [1]) [µM] | SMILES | Quotient m ± sm of neuron count of the trauma side to the contralateral side (hippocampus) (hippocampal neurons) | Infarct volume, % of the control [mean value ± SD] (male Long Evans rats; [3]) | also measured |
| --- | --- | --- | --- | --- |
| 0.237 | COc1ccc2cccc(N3CCN(CCn4cnc5sc6c(c5c4=O)CCN(C)C6)CC3)c2c1 [Compound C] | 0.56 ± 0.05 |  | Infarct volume, % of the control (male Long Evans rats; 1 + 0.5 mg/kg + mg/kg/h i.v. bolus then infusion): 67 % of the control |
| 0.124 | CCN1CCc2sc3ncn(CCN4CCN(c5cccc6ccccc56)CC4)c(=O)c3c2C1 [Compound B, 3,4,5,6,7,8-Hexahydro-6-ethyl-3-[2-(4-(1-naphthyl)piperazin-1-yl)ethyl]pyrido[3′,4′:4,5]thieno[2,3-d]pyrimidin-4-one] | 0.64 ± 0.03 | 66 ± 19 % of the control |  |
|  | NCCc1c[nH]c2ccc(C(N)=O)cc12 [Compound 5-CT, 5-carboxamidotryptamine, reference compound] |  |  | Kd (h5-HT5 receptor [2]): 0.00057 µM; Ki (h5-HT5 receptor [1]; 2 nM [3H]-5-CT, 75 min at 30° C., Ki=IC50/(1+C/Kd)): 0.00144 µM |
| 0.661 | CN1CCc2c(sc3ncn(CCN4CCN(c5cccc(C(F)(F)F)c5)CC4)c(=O)c23)C1 [Compound A, 3,4,5,6,7,8-Hexahydro-7-methyl-3-[2-(4-(3-trifluoromethyl-phenyl)piperazin-1-yl)ethyl]pyrido[4′,3′:4,5]thieno[2,3-d]-pyrimidin-4-one] |  |  | Infarct volume, % of the control [mean value ± SD] (male Long Evans rats; 4 + 2 mg/kg + mg/kg/h i.v. bolus then infusion): 62 ± 18 % of the control |
|  | CCCN(CCC)C1CCc2cccc(O)c2C1 (stereo not drawn) [R(+)-8-OH-DPAT, 8-hydroxy-2-(di-n-propylamino)tetralin, reference compound] |  | 72 ± 32 % of the control |  |
